Source: ChEMBL document CHEMBL5579811, “Synthesis, SARS-CoV-2 main protease inhibition, molecular docking and in silico ADME studies of furanochromene-quinoline hydrazone derivatives” (Bioorg Med Chem Lett, 2024)

target: Replicase polyprotein 1ab (Severe acute respiratory syndrome coronavirus 2, UniProt P0DTD1); experiment: Inhibition of SARS-COV-2 main protease using fluorogenic substrate (DABCYL)-Lys-Thr- Ser-Ala-Val-Leu-Gln-Ser-Gly-Phe-Arg-Lys-Met-Glu-(EDANS)-NH2 measured every 5 mins for 50 mins by plate reader assay

CC1(C)C=Cc2c(ccc3cc(C(=O)N/N=C/c4ccc5cccc(O)c5n4)oc23)O1 was tested. Which IC50 did it give?
The IC50 was 183 µM.

For CC1(C)C=Cc2c(ccc3cc(C(=O)N/N=C/c4ccc5ccccc5n4)oc23)O1, which IC50 is on record?
Its IC50 is over 250 µM.

For CC1(C)C=Cc2c(ccc3cc(C(=O)N/N=C/c4cnc5ccccc5c4)oc23)O1, which IC50 is on record?
The IC50 was 29.7 µM.

How did the IC50 turn out when CC1(C)C=Cc2c(ccc3cc(C(=O)N/N=C/c4ccnc5ccccc45)oc23)O1 was run?
The IC50 was 129 µM.

With CC1(C)C=Cc2c(ccc3cc(C(=O)N/N=C/c4cccc5cccnc45)oc23)O1 as the compound, how does the IC50 read?
The IC50 was 16.1 µM.

With CC1(C)C=Cc2c(ccc3cc(C(=O)N/N=C/c4cccc5ncccc45)oc23)O1 as the compound, how does the IC50 read?
Its IC50 is 43.1 µM.

For CC1(C)C=Cc2c(ccc3cc(C(=O)N/N=C/c4ccc5ncccc5c4)oc23)O1, which IC50 is on record?
The IC50 was 34.1 µM.
